Holding throughout (experiment): microbe, parasite or virus in culture
Details in all cases: variant bovis BCG, 3 h

The test system of experiment [1] is Mycobacterium tuberculosis.
The subject of experiment [2] is Mycobacterium tuberculosis. The source holds these as a separate data set.
In experiment [3] the test system is Mycobacterium tuberculosis. The source holds these as a separate data set.

Each structure is given as a SMILES string. In brackets after ≈: the same amount, converted by molar mass.

Turning to `C[C@@H]1CN(c2c(F)c(N)c3c(=O)c(C(=O)O)cn(C4CC4)c3c2F)C[C@H](C)N1` [SPARFLOXACIN], the figures for the IC50 in experiment [1], in experiment [2] and in experiment [3] were 7.3 µg/mL (≈ 18.6 µM), 11.4 µg/mL (≈ 29.1 µM) and 16.7 µg/mL (≈ 42.6 µM), respectively.
In experiment [2], `O=C(N[C@H](CO)[C@H](O)c1ccc([N+](=O)[O-])cc1)C(Cl)Cl` [CHLORAMPHENICOL] gave an IC50 of 5.6 µg/mL (≈ 17.3 µM).
With `CO[C@H]1/C=C/O[C@@]2(C)Oc3c(C)c(O)c4c(O)c(c(/C=N/N5CCN(C)CC5)c(O)c4c3C2=O)NC(=O)/C(C)=C\C=C\[C@H](C)[C@H](O)[C@@H](C)[C@@H](O)[C@@H](C)[C@H](OC(C)=O)[C@@H]1C` [RIFAMPIN], the IC50 came to 2.9 µg/mL (≈ 3.52 µM) in experiment [1] and 2 µg/mL (≈ 2.43 µM) in experiment [2].

The values above are taken from ChEMBL document CHEMBL3351608, “2-Phenylindole and Arylsulphonamide: Novel Scaffolds Bactericidal against Mycobacterium tuberculosis” (ACS Med Chem Lett, 2014).
